Laboratory results: patent publication US20220202712A1, “SELF-EMULSIFYING DRUG DELIVERY SYSTEMS FOR DELIVERY OF LIPOPHILIC COMPOUNDS” (Yissum Research Development Company of the Hebrew …, priority 2019, published 2022)
Where two headings read alike, the source gives them in different places.

How the values were obtained:
[1] = sublingual drops, cited from earlier work
[2] = Pharmacokinetic studies for CBD- and THC-loaded SEDDS based on tributyrin; details: oral, 0.125 mg THC/2.5 mg CBD (CBD:THC 20:1)
Protocol: The PK studies were carried out on rats. Three animals were used in each time point. At each test point, animals were sacrificed and blood (5-6 ml) withdrawn from the heart and collected in heparinized tubes.
Each rat was orally administered with 1 mil of the test formulation. Blood samples were withdrawn at different time points: 0, 0.5, 1, 2, 4, 6, 10 and 24 hours. The blood samples were centrifuged at 4000 rpm and the plasma was separated and collected in clean polyethylene tubes and kept at −80° C. until analysis using LC-MS/MS.
TB1 liquid SEDDS formulations were tested: 200 parts tributyrin, 350 parts Cremophor RH40, 350 parts PEG400, 350 parts PG.
The HPLC system consisted of a Dionex/Thermo Scientific UltiMate 3000 UHPLC systems fitted with a 100 μL sample loop, Dionex™ UltiMate™ 3000 Rapid Separation Diode Array Detector, and integration software Chromeleon Chromatography Data System (CDS).
Chromatographic separation was performed with guard column Luna® 5 μm C18(2) 100 Å, LC Column 150×4.6 mm, using an isocratic mobile phase of water (0.1% formic acid): acetonitrile (0.1% formic acid) 10:90 at a flow rate of 1 mL/min for 10 in minisocratic condition. The column temperature was 40° C. and the injection volume was 100 μL.
Dual ion electrospray ionization (DUIS) in positive was used for ionization of the analytes on the ISQ™ EC. […]

Row | SMILES | Cmax ([1]; CBD dose 10 mg) | Tmax ([1]; CBD dose 10 mg) | Cmax ([1]; CBD dose 20 mg) | Tmax ([1]; CBD dose 20 mg) | Tmax ([2]; Table 20, THC, semi-solid SEDDS) | C1/F_obs ([2]; Table 21-2, THC in tributyrin as a carrier (reference))
1 | C=C(C)[C@@H]1CCC(C)=C[C@H]1c1c(O)cc(CCCCC)cc1O [CBD, cannabidiol] | 2.05 ng/mL | 2.17 h | 2.58 ng/mL | 1.67 h | – | –
2 | CCCCCc1cc(O)c2c(c1)OC(C)(C)[C@@H]1CCC(C)=C[C@@H]21 [THC, tetrahydrocannabinol] | – | – | – | – | 2.00 h | 66.835 mL/min/kg
